Test results as given in patent US11738008B2, “N-methyl-D-aspartic acid receptor modulators” (Emory University, priority 2018, dated 2023).

Key:
α1D = α1D (Homo sapiens, UniProt P25100); assay: NIMH PDSP radioligand binding, α1D; conditions: read-out: Radioligand binding in 10 μM compound (% control)
Procedure: (§1) The NIMH PDSP is Directed by Bryan L. Roth at the University of North Carolina at Chapel Hill and Project Officer Jamie Driscoll at NIMH, Bethesda Md., USA. Radioligand binding was measured in the presence of 10 μM 1180-420 and 1180-447. […] For experimental details please refer to the PDSP web site https://pdsp.unc.edu/ims/investigator/web/. Both 1180-420 and 1180-447 were also tested at AMPA, nicotinic acetylcholine, serotonin, GABA, and glycine ion channels using a two-electrode voltage clamp assay.
(§2) Receptor binding profiles of compound 1180-447 were generously provided by the National Institute of Mental Health's Psychoactive Drug Screening Program, Contract # HHSN-271-2013-00017-C(NIMH PDSP). The NIMH PDSP is directed by Bryan L. Roth at the University of North Carolina at Chapel Hill and Project Officer Jamie Driscoll at NIMH, Bethesda Md., USA. Radioligand binding was measured in the presence of 10 μM 1180-447. […] For experimental details please refer to the PDSP web site https://pdsp.unc.edu/ims/investigator/web/.
(§3) The NIMH PDSP is Directed by Bryan L. Roth at the University of North Carolina at Chapel Hill and Project Officer Jamie Driscoll at NIMH, Bethesda Md., USA. Radioligand binding was measured in the presence of 10 μM 1180-420. […] For experimental details please refer to the PDSP web site https://pdsp.unc.edu/ims/investigator/web/.

5-HT2C = molecular target: T1, 5-HT2C (Homo sapiens, UniProt P28335); assay: NIMH PDSP radioligand binding, 5-HT2C; conditions: for remaining activity at 10 µM: read-out: Radioligand binding in 10 μM compound (% control)
T1 construct: NIMH PDSP (assay provider)
T1 sequence (P28335 33-458): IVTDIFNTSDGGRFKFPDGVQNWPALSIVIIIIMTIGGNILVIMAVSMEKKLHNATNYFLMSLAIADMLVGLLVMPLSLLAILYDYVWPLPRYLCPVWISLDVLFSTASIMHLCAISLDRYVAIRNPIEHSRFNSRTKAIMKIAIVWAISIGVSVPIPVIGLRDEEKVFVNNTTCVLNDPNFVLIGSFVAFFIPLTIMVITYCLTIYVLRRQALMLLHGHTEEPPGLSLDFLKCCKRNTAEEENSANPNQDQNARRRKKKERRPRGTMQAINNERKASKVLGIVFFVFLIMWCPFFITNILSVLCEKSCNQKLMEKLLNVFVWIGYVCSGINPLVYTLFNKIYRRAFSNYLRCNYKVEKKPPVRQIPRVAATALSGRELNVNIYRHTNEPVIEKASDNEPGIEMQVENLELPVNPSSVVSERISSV
Procedure: as §1, §2, §3

H1 = H1 (Homo sapiens, UniProt P35367); assay: NIMH PDSP radioligand binding, H1; conditions: read-out: Radioligand binding in 10 μM compound (% control)
Procedure: as §1, §2, §3

D5 = molecular target: T2, D5 (Homo sapiens, UniProt P21918); assay: NIMH PDSP radioligand binding, D5; conditions: for remaining activity at 10 µM: read-out: Radioligand binding in 10 μM compound (% control)
T2 construct: NIMH PDSP (assay provider)
Procedure: as §1, §2, §3

GluA2 = molecular target: T3, GluA2 (Homo sapiens, UniProt P42262); assay: Off-target two-electrode voltage clamp assay, GluA2; format: cell-based; conditions: 10 μM, mean ± SEM
T3 construct: expressed in transfected cells
Procedure: as §1

M1 = M1 (Homo sapiens, UniProt P11229); assay: NIMH PDSP radioligand binding, M1; conditions: read-out: Radioligand binding in 10 μM compound (% control)
Procedure: as §1, §2, §3

α2B = α2B (Homo sapiens, UniProt P18089); assay: NIMH PDSP radioligand binding, α2B; conditions: read-out: Radioligand binding in 10 μM compound (% control)
Procedure: as §1, §2, §3

5-HT1A = molecular target: T4, 5-HT1A (Homo sapiens, UniProt P08908); assay: NIMH PDSP radioligand binding, 5-HT1A; conditions: read-out: Radioligand binding in 10 μM compound (% control)
T4 construct: NIMH PDSP (assay provider)
Procedure: as §1, §2, §3

5-HT2B = molecular target: T5, 5-HT2B (Homo sapiens, UniProt P41595); assay: NIMH PDSP radioligand binding, 5-HT2B; conditions: read-out: Radioligand binding in 10 μM compound (% control)
T5 construct: NIMH PDSP (assay provider)
Procedure: as §1, §2, §3

dopamine transporter = dopamine transporter (Homo sapiens, UniProt Q01959); assay: NIMH PDSP radioligand binding, dopamine transporter; conditions: read-out: Radioligand binding in 10 μM compound (% control)
Procedure: as §1, §2, §3

H4 = H4 (Homo sapiens, UniProt Q9H3N8); assay: NIMH PDSP radioligand binding, H4; conditions: read-out: Radioligand binding in 10 μM compound (% control)
Procedure: as §1, §2, §3

serotonin transporter = serotonin transporter (Homo sapiens, UniProt P31645); assay: NIMH PDSP radioligand binding, serotonin transporter; conditions: read-out: Radioligand binding in 10 μM compound (% control)
Procedure: as §1, §2, §3

α4β2-nACh = molecular target: T6, α4β2-nACh (Homo sapiens, UniProt P17787+P43681); assay: Off-target two-electrode voltage clamp assay, α4β2-nACh; format: cell-based; conditions: 10 μM, mean ± SEM
T6 construct: expressed in transfected cells
Procedure: as §1

D3 = molecular target: T7, D3 (Homo sapiens, UniProt P35462); assay: NIMH PDSP radioligand binding, D3; conditions: read-out: Radioligand binding in 10 μM compound (% control)
T7 construct: NIMH PDSP (assay provider)
Procedure: as §1, §2, §3

5-HT1B = molecular target: T8, 5-HT1B (Homo sapiens, UniProt P28222); assay: NIMH PDSP radioligand binding, 5-HT1B; conditions: read-out: Radioligand binding in 10 μM compound (% control)
T8 construct: NIMH PDSP (assay provider)
Procedure: as §1, §2, §3

D1 = molecular target: T9, D1 (Homo sapiens, UniProt P21728); assay: NIMH PDSP radioligand binding, D1; conditions: read-out: Radioligand binding in 10 μM compound (% control)
T9 construct: NIMH PDSP (assay provider)
Procedure: as §1, §2, §3

κ-opioid receptor = κ-opioid receptor (Homo sapiens, UniProt P41145); assay: NIMH PDSP radioligand binding, κ-opioid receptor; conditions: for remaining activity at 10 µM: read-out: Radioligand binding in 10 μM compound (% control); for Ki: read-out: pKi values from non-linear regression of radioligand competition binding isotherms (converted)
Procedure: as §1, §2, §3

D2 = molecular target: T10, D2 (Homo sapiens, UniProt P14416); assay: NIMH PDSP radioligand binding, D2; conditions: read-out: Radioligand binding in 10 μM compound (% control)
T10 construct: NIMH PDSP (assay provider)
Procedure: as §1, §2, §3

M5 = M5 (Homo sapiens, UniProt P08912); assay: NIMH PDSP radioligand binding, M5; conditions: read-out: Radioligand binding in 10 μM compound (% control)
Procedure: as §1, §2, §3

H3 = H3 (Homo sapiens, UniProt Q9Y5N1); assay: NIMH PDSP radioligand binding, H3; conditions: read-out: Radioligand binding in 10 μM compound (% control)
Procedure: as §1, §2, §3

5-HT1E = molecular target: T11, 5-HT1E (Homo sapiens, UniProt P28566); assay: NIMH PDSP radioligand binding, 5-HT1E; conditions: read-out: Radioligand binding in 10 μM compound (% control)
T11 construct: NIMH PDSP (assay provider)
Procedure: as §1, §2, §3

H2 = H2 (Homo sapiens, UniProt P25021); assay: NIMH PDSP radioligand binding, H2; conditions: read-out: Radioligand binding in 10 μM compound (% control)
Procedure: as §1, §2, §3

σ2 = σ2 (Homo sapiens, UniProt Q5BJF2); assay: NIMH PDSP radioligand binding, σ2; conditions: for remaining activity at 10 µM: read-out: Radioligand binding in 10 μM compound (% control); for Ki: read-out: pKi values from non-linear regression of radioligand competition binding isotherms (converted)
Procedure: as §1, §2, §3

M2 = M2 (Homo sapiens, UniProt P08172); assay: NIMH PDSP radioligand binding, M2; conditions: read-out: Radioligand binding in 10 μM compound (% control)
Procedure: as §1, §2, §3

GluA1 = molecular target: T12, GluA1 (Homo sapiens, UniProt P42261); assay: Off-target two-electrode voltage clamp assay, GluA1; format: cell-based; conditions: 10 μM, mean ± SEM
T12 construct: expressed in transfected cells
Procedure: as §1

[1] = read-out: pKi values from non-linear regression of radioligand competition binding isotherms (converted)

κ-opioid receptor, sequence (P41145 whole entry): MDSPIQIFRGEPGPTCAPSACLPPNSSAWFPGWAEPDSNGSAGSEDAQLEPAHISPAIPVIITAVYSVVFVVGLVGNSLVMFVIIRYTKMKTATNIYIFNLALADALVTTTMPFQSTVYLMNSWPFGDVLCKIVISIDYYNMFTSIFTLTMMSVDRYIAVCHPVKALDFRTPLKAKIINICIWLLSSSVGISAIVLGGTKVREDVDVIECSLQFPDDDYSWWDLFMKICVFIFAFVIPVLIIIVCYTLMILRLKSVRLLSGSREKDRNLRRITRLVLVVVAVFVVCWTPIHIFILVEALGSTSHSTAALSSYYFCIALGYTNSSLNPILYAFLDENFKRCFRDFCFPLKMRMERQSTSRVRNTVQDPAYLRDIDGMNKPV
T2 sequence (P21918 whole entry): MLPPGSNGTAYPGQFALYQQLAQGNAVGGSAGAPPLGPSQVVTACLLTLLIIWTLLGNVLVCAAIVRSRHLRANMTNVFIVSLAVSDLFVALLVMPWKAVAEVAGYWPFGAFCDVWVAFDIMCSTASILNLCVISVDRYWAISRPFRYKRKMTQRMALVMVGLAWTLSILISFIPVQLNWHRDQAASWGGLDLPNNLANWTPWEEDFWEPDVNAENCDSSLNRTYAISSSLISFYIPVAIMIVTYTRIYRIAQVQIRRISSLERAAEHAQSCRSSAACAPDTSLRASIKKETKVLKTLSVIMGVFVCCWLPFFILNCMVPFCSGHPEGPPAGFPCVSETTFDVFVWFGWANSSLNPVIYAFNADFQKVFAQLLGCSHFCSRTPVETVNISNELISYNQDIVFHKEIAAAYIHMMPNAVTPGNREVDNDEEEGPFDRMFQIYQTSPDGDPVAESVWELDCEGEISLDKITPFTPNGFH
σ2, sequence (Q5BJF2 whole entry): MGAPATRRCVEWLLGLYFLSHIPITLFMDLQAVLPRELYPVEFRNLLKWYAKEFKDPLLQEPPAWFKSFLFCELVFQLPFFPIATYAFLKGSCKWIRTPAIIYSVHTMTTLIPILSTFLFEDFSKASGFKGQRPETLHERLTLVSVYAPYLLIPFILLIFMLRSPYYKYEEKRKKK
T8 sequence (P28222 whole entry, species assumed): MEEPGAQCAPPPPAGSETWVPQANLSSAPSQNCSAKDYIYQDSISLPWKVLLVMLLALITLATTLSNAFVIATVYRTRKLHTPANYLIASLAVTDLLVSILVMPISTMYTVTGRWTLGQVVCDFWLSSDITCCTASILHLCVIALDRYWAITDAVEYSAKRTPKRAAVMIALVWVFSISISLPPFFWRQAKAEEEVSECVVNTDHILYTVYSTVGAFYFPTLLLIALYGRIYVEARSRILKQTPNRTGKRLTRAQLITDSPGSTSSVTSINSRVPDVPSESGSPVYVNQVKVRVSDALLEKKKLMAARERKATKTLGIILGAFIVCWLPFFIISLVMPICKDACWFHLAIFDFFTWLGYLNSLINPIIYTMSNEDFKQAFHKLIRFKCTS
α2B, sequence (P18089 whole entry): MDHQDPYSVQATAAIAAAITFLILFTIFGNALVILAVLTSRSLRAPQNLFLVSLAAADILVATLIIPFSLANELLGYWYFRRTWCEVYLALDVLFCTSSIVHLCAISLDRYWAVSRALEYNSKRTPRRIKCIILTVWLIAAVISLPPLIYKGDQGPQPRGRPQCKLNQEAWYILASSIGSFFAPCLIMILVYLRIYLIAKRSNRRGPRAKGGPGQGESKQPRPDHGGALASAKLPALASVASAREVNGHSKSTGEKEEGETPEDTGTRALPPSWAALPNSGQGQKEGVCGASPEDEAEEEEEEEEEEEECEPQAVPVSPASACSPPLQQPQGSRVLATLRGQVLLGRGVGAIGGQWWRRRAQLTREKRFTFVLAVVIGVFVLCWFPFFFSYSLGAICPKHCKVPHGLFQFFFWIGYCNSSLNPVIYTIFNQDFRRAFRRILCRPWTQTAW
H3, sequence (Q9Y5N1 whole entry): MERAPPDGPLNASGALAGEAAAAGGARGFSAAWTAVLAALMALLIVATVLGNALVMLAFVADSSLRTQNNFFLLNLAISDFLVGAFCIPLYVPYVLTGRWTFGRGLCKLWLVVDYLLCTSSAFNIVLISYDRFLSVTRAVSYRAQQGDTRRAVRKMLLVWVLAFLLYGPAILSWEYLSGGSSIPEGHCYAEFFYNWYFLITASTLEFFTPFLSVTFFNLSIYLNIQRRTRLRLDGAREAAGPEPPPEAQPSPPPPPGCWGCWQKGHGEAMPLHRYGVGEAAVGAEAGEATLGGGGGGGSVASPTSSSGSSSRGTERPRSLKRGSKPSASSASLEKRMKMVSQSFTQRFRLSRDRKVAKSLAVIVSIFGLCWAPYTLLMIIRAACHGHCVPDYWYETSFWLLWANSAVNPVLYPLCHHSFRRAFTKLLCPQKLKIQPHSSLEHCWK
T4 sequence (P08908 whole entry, species assumed): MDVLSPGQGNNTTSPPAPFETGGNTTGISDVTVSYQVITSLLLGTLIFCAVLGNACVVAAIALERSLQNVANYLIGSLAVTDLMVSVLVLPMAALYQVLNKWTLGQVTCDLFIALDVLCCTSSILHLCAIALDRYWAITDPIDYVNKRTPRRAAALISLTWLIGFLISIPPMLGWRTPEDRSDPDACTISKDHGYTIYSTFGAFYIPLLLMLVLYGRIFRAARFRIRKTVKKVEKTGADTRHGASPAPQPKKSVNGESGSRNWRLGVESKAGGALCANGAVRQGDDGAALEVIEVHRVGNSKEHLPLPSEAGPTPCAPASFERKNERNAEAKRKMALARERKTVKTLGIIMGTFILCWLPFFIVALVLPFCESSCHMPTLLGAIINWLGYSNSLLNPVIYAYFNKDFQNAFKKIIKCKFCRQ
M2, sequence (P08172 whole entry): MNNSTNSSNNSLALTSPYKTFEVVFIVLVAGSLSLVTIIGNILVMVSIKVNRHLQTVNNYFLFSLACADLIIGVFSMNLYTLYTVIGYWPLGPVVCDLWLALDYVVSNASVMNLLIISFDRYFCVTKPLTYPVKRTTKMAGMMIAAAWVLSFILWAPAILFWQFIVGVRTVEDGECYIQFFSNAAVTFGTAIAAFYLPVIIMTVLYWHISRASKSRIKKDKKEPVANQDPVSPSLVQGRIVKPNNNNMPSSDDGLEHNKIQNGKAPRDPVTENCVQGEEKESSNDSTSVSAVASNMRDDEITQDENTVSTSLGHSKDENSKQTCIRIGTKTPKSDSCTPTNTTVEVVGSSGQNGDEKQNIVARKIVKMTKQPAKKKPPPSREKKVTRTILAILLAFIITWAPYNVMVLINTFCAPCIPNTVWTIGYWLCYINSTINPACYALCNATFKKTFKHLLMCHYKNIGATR
T12 sequence (P42261 19-906, species assumed): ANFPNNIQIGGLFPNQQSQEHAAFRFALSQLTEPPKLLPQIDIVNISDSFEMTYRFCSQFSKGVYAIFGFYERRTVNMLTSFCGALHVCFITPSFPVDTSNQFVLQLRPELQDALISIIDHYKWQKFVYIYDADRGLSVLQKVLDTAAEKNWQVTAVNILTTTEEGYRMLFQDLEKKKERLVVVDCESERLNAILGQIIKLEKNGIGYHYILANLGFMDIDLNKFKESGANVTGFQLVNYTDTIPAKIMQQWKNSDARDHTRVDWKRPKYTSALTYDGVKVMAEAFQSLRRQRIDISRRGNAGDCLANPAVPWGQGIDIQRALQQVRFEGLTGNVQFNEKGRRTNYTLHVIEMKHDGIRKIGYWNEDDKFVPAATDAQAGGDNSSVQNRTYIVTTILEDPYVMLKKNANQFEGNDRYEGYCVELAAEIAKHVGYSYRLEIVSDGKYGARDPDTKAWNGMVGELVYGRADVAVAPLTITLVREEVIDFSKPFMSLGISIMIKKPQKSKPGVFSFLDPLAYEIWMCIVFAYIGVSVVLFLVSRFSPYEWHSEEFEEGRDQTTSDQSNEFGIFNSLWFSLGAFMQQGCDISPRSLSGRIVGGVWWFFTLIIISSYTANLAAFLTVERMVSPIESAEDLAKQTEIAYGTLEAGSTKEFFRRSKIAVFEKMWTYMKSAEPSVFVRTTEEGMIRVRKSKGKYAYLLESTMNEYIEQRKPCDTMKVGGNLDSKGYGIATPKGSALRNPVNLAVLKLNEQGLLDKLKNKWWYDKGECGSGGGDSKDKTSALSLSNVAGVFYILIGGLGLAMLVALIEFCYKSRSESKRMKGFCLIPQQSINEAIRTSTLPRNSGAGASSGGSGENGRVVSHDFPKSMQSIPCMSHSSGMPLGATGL
T3 sequence (P42262 25-883, species assumed): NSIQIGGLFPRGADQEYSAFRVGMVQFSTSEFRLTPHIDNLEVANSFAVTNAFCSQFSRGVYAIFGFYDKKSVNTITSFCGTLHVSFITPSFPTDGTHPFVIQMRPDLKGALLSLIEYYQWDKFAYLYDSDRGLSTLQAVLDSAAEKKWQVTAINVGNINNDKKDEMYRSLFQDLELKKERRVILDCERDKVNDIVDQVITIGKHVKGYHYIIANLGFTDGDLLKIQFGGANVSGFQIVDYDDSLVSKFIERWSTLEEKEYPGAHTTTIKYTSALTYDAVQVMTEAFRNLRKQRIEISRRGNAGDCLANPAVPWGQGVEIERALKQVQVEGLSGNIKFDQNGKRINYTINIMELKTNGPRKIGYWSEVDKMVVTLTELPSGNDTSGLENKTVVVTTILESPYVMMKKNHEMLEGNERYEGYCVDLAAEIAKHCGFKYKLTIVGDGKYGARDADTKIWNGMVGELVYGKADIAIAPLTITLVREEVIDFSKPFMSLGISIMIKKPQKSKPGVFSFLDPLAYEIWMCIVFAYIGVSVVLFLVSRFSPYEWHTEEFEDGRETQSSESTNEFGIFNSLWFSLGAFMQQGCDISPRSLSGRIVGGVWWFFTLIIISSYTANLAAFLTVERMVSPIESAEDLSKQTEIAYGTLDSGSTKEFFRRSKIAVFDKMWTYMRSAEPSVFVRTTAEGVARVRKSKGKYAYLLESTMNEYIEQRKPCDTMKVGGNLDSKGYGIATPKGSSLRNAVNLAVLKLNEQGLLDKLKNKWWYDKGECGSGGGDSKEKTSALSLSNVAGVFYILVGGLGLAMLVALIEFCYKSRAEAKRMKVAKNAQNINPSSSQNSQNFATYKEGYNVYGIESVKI

`COc1ccc(OCC2c3cccn3CC(=O)N2Cc2cccc(C(F)(F)F)c2)cc1` (racemic) [1180-447, 1-((4-Methoxyphenoxy)methyl)-2-(3-(trifluoromethyl)benzyl)-1,2-dihydropyrrolo[1,2-a]pyrazin-3(4H)-one] was tested, and the remaining activity at 10 µM (α1D) was 79%, the remaining activity at 10 µM (5-HT2C) was 32% and the Ki (5-HT2C; [1]) was > 10000 nM. The remaining activity at 10 µM (H1) was 86%, the remaining activity at 10 µM (D5) was 67% and the “% control response” value (GluA2) was 99.3 ± 2.9 % control response. It also gave a remaining activity at 10 µM (M1) of 88%, a remaining activity at 10 µM (α2B) of 94% and a remaining activity at 10 µM (5-HT1A) of 101%. It also gave a remaining activity at 10 µM (5-HT2B) of 78%, a remaining activity at 10 µM (dopamine transporter) of 76% and a remaining activity at 10 µM (H4) of 107%. The remaining activity at 10 µM (serotonin transporter) was 91%, the “% control response” value (α4β2-nACh) was 52.7 ± 6.3 % control response and the remaining activity at 10 µM (D3) was 93%. The remaining activity at 10 µM (5-HT1B) was 109%, the remaining activity at 10 µM (D1) was 87% and the remaining activity at 10 µM (κ-opioid receptor) was 47%. It also gave a Ki (κ-opioid receptor) of 1580 nM, a remaining activity at 10 µM (D2) of 101% and a remaining activity at 10 µM (M5) of 108%. The remaining activity at 10 µM (H3) was 79%, the remaining activity at 10 µM (5-HT1E) was 80% and the remaining activity at 10 µM (H2) was 103%. The remaining activity at 10 µM (σ2) was 32%, the Ki (σ2) was 1580 nM and the remaining activity at 10 µM (M2) was 90%. For the same molecule, the “% control response” value (GluA1) was 96.8 ± 13.3 % control response.

In the case of `COc1ccc(OCC2c3cccn3CCN2C(=O)c2cccc(Cl)c2)cc1` (centres unmarked) [1180-420, (3-Chlorophenyl)(1-((4-methoxyphenoxy)methyl)-3,4-dihydropyrrolo[1,2-a]pyrazin-2(1H)-yl)methanone], the remaining activity at 10 µM (α1D) is reported as 79%, the remaining activity at 10 µM (5-HT2C) is reported as 113% and the remaining activity at 10 µM (H1) is reported as 74%. The remaining activity at 10 µM (D5) was 37%, the Ki (D5; [1]) was 1260 nM and the “% control response” value (GluA2) was 101.6 ± 1.3 % control response. It also gave a remaining activity at 10 µM (M1) of 90%, a remaining activity at 10 µM (α2B) of 93% and a remaining activity at 10 µM (5-HT1A) of 110%. The remaining activity at 10 µM (5-HT2B) was 97%, the remaining activity at 10 µM (dopamine transporter) was 98% and the remaining activity at 10 µM (H4) was 90%. For the same molecule, the remaining activity at 10 µM (serotonin transporter) was 86%, the “% control response” value (α4β2-nACh) was 56.4 ± 5.3 % control response and the remaining activity at 10 µM (D3) was 71%. It also gave a remaining activity at 10 µM (5-HT1B) of 95%, a remaining activity at 10 µM (D1) of 59% and a remaining activity at 10 µM (κ-opioid receptor) of 32%. It also gave a Ki (κ-opioid receptor) of 1580 nM, a remaining activity at 10 µM (D2) of 87% and a remaining activity at 10 µM (M5) of 101%. The remaining activity at 10 µM (H3) was 99%, the remaining activity at 10 µM (5-HT1E) was 78% and the remaining activity at 10 µM (H2) was 75%. The remaining activity at 10 µM (σ2) was 48%, the Ki (σ2) was 1580 nM and the remaining activity at 10 µM (M2) was 110%. The “% control response” value (GluA1) was 98.9 ± 13.7 % control response.
